Columns and labels:
Format in all cases: organism-based
Vigna angularis [1] = test: Phytotoxicity in Vigna angularis (adzuki bean) assessed as seed moisture content at 2160 g ai/ha after 42 days applied as spray (reference value: 13.9%); conditions: in vivo, other, 1008 h, at 2160 g/ha
Vigna angularis [2] = test: Phytotoxicity in Vigna angularis (adzuki bean) assessed as visual injury at 1080 g ai/ha after 14 days applied as spray relative to untreated control; conditions: in vivo, other, 336 h
Vigna angularis [3] = test: Phytotoxicity in Vigna angularis (adzuki bean) assessed as decrease in plant height at 2160 g ai/ha after 28 days applied as spray relative to untreated control; design: scale not given: the % may be the effect or the level left; conditions: in vivo, other, 672 h
Phaseolus vulgaris [4] = test: Phytotoxicity in Phaseolus vulgaris (black bean) assessed as visual injury at 1080 g ai/ha applied as spray during post emergence after 7 days relative to untreated control; conditions: in vivo, other, 168 h
Vigna angularis [5] = test: Phytotoxicity in Vigna angularis (adzuki bean) assessed as visual injury at 2160 g ai/ha after 7 days applied as spray relative to untreated control; conditions: in vivo, other, 168 h
Vigna angularis [6] = test: Phytotoxicity in Vigna angularis (adzuki bean) assessed as decrease in plant height at 1080 g ai/ha after 28 days applied as spray relative to untreated control; design: scale not given: the % may be the effect or the level left; conditions: in vivo, other, 672 h
Vigna angularis [7] = test: Phytotoxicity in Vigna angularis (adzuki bean) assessed as visual injury at 2160 g ai/ha after 28 days applied as spray relative to untreated control; conditions: in vivo, other, 672 h
Vigna angularis [8] = test: Phytotoxicity in Vigna angularis (adzuki bean) assessed as decrease in shoot dry weight at 2160 g ai/ha after 42 days applied as spray relative to untreated control; design: scale not given: the % may be the effect or the level left; conditions: in vivo, other, 1008 h
Vigna angularis [9] = test: Phytotoxicity in Vigna angularis (adzuki bean) assessed as decrease in crop yield at 2160 g ai/ha measured during post emergence applied as spray relative to untreated control; conditions: in vivo, other
Vigna angularis [10] = test: Phytotoxicity in Vigna angularis (adzuki bean) assessed as visual injury at 1080 g ai/ha after 7 days applied as spray relative to untreated control; conditions: in vivo, other, 168 h
Phaseolus vulgaris [11] = test: Phytotoxicity in Phaseolus vulgaris (cranberry bean) assessed as visual injury at 1080 g ai/ha applied as spray during post emergence after 7 days relative to untreated control; conditions: in vivo, other, 168 h
Vigna angularis [12] = test: Phytotoxicity in Vigna angularis (adzuki bean) assessed as seed moisture content at 1080 g ai/ha after 42 days applied as spray (reference value: 13.9%); conditions: in vivo, other, 1008 h, at 1080 g/ha
Vigna angularis [13] = test: Phytotoxicity in Vigna angularis (adzuki bean) assessed as decrease in shoot dry weight at 1080 g ai/ha after 42 days applied as spray relative to untreated control; design: scale not given: the % may be the effect or the level left; conditions: in vivo, other, 1008 h
Phaseolus vulgaris [14] = test: Phytotoxicity in Phaseolus vulgaris (white navy bean) assessed as decrease in crop yield relative to untreated control; conditions: in vivo
Vigna angularis [15] = test: Phytotoxicity in Vigna angularis (adzuki bean) assessed as decrease in crop yield at 1080 g ai/ha measured during post emergence applied as spray relative to untreated control; conditions: in vivo, other
Phaseolus vulgaris [16] = test: Phytotoxicity in Phaseolus vulgaris (dry bean) assessed as visual injury at 1080 g ai/ha applied as spray during post emergence relative to untreated control; conditions: in vivo, other
Vigna angularis [17] = test: Phytotoxicity in Vigna angularis (adzuki bean) assessed as visual injury at 1080 g ai/ha after 28 days applied as spray relative to untreated control; conditions: in vivo, other, 672 h
Vigna angularis [18] = test: Phytotoxicity in Vigna angularis (adzuki bean) assessed as visual injury at 2160 g ai/ha after 14 days applied as spray relative to untreated control; conditions: in vivo, other, 336 h
Vigna angularis [19] = test: Phytotoxicity in Vigna angularis (adzuki bean) assessed as seed moisture content at 480 g ai/ha after 42 days applied as spray (reference value: 13.9%); conditions: in vivo, other, 1008 h, at 480 g/ha
Vigna angularis [20] = test: Phytotoxicity in Vigna angularis (adzuki bean) assessed as visual injury at 240 g ai/ha after 7 days applied as spray relative to untreated control; conditions: in vivo, other, 168 h
Vigna angularis [21] = test: Phytotoxicity in Vigna angularis (adzuki bean) assessed as crop yield at 480 g ai/ha measured during post emergence applied as spray (reference value: 2.05 t/ha); conditions: in vivo, other
Vigna angularis [22] = test: Phytotoxicity in Vigna angularis (adzuki bean) assessed as visual injury at 240 g ai/ha after 28 days applied as spray relative to untreated control; conditions: in vivo, other, 672 h
Vigna angularis [23] = test: Phytotoxicity in Vigna angularis (adzuki bean) assessed as visual injury at 480 g ai/ha after 14 days applied as spray relative to untreated control; conditions: in vivo, other, 336 h
Vigna angularis [24] = test: Phytotoxicity in Vigna angularis (adzuki bean) assessed as shoot dry weight at 240 g ai/ha measured per 1 m row after 42 days applied as spray (reference value: 153 g); conditions: in vivo, other, 1008 h
Vigna angularis [25] = test: Phytotoxicity in Vigna angularis (adzuki bean) assessed as plant height at 240 g ai/ha after 28 days applied as spray (RVB = 34 cm); conditions: in vivo, other, 672 h
Vigna angularis [26] = test: Phytotoxicity in Vigna angularis (adzuki bean) assessed as visual injury at 480 g ai/ha after 28 days applied as spray relative to untreated control; conditions: in vivo, other, 672 h
Vigna angularis [27] = test: Phytotoxicity in Vigna angularis (adzuki bean) assessed as visual injury at 480 g ai/ha after 7 days applied as spray relative to untreated control; conditions: in vivo, other, 168 h
Vigna angularis [28] = test: Phytotoxicity in Vigna angularis (adzuki bean) assessed as visual injury at 240 g ai/ha after 14 days applied as spray relative to untreated control; conditions: in vivo, other, 336 h
Vigna angularis [29] = test: Phytotoxicity in Vigna angularis (adzuki bean) assessed as seed moisture content at 240 g ai/ha after 42 days applied as spray (reference value: 13.9%); conditions: in vivo, other, 1008 h, at 240 g/ha
Vigna angularis [30] = test: Phytotoxicity in Vigna angularis (adzuki bean) assessed as crop yield at 240 g ai/ha measured during post-emergence applied as spray (reference value: 2.05 t/ha); conditions: in vivo, other
Vigna angularis [31] = test: Phytotoxicity in Vigna angularis (adzuki bean) assessed as plant height at 480 g ai/ha after 28 days applied as spray (RVB = 34 cm); conditions: in vivo, other, 672 h
Vigna angularis [32] = test: Phytotoxicity in Vigna angularis (adzuki bean) assessed as decrease in shoot dry weight at 480 g ai/ha after 42 days applied as spray relative to untreated control; design: scale not given: the % may be the effect or the level left; conditions: in vivo, other, 1008 h

Question: For `CC(C)N1C(=O)c2ccccc2NS1(=O)=O` [BENTAZON], which Activity (Vigna angularis [1]) is on record?
Answer: 15.3%

Question: What about the Activity (Vigna angularis [2]) of the same compound?
Answer: 33.2%

Question: And the Activity (Vigna angularis [3])?
Answer: 43%

Question: What about the Activity (Phaseolus vulgaris [4]) of the same compound?
Answer: < 3%

Question: And the Activity (Vigna angularis [5])?
Answer: 36.4%

Question: And the Activity (Vigna angularis [6])?
Answer: 37%

Question: And the Activity (Vigna angularis [7])?
Answer: 38.1%

Question: What about the Activity (Vigna angularis [8]) of the same compound?
Answer: 65%

Question: What about the Crop_yield (Vigna angularis [9]) of the same compound?
Answer: 56%

Question: What about the Activity (Vigna angularis [10]) of the same compound?
Answer: 29.5%

Question: And the Activity (Phaseolus vulgaris [11])?
Answer: < 2%

Question: What about the Activity (Vigna angularis [12]) of the same compound?
Answer: 15%

Question: And the Activity (Vigna angularis [13])?
Answer: 60%

Question: And the Crop_yield (Phaseolus vulgaris [14])?
Answer: <= 21%

Question: And the Crop_yield (Vigna angularis [15])?
Answer: 48%

Question: What about the Activity (Phaseolus vulgaris [16]) of the same compound?
Answer: 3%

Question: What about the Activity (Vigna angularis [17]) of the same compound?
Answer: 29.8%

Question: What about the Activity (Vigna angularis [18]) of the same compound?
Answer: 43.5%

Question: What does the source list for `CS(=O)(=O)NC(=O)c1cc(Oc2ccc(C(F)(F)F)cc2Cl)ccc1[N+](=O)[O-]` [FOMESAFEN]?
Answer: Activity (Vigna angularis [19]): 14.4%; Activity (Vigna angularis [20]): 6.8%; Crop_yield (Vigna angularis [21]): 1.81 tons/ha; Activity (Vigna angularis [22]): 1.7%; Activity (Vigna angularis [23]): 7.2%; Activity (Vigna angularis [24]): 140 g; Activity (Vigna angularis [25]): 32.4 cm; Activity (Vigna angularis [26]): 2.6%; Activity (Vigna angularis [27]): 9.8%; Activity (Vigna angularis [28]): 4.6%; Activity (Vigna angularis [29]): 14.2%; Crop_yield (Vigna angularis [30]): 1.88 tons/ha; Activity (Vigna angularis [31]): 31.3 cm; Activity (Vigna angularis [32]): 16%
